Experimental data taken from US9199943B2, “2-(poly-substituted aryl)-6-amino-5-halo-4-pyrimidinecarboxylic acids and their use as herbicides” (Dow AgroSciences, LLC., priority 2006, dated 2015).

Experiments:
Assay type in all cases: in vivo
[1] = test system: TRZAS = wheat (Triticum aestivum); test: Postemergence herbicidal activity in cereal crops, wheat; settings: post-emergence, 480 h, post-emergent, wheat (crop), after 20-22 days; for pest or weed control at 35 g/ha: 35 g ai/ha; for pest or weed control at 17.5 g/ha: 17.5 g ai/ha; for pest or weed control at 70 g/ha: 70 g ai/ha
Protocol: (§1) Seeds of the desired test plant species were planted in Sun Gro MetroMix® 306 planting mixture, which typically has a pH of 6.0 to 6.8 and an organic matter content of about 30 percent, in plastic pots with a surface area of 103.2 square centimeters. When required to ensure good germination and healthy plants, a fungicide treatment and/or other chemical or physical treatment was applied. The plants were grown for 7-36 days in a greenhouse with an approximate 14 hour photoperiod which was maintained at about 18° C. during the day and 17° C. during the night. Nutrients and water were added on a regular basis and supplemental lighting was provided with overhead metal halide 1000-Watt lamps as necessary. The plants were employed for testing when they reached the second or third true leaf stage.
(§2) A weighed amount, determined by the highest rate to be tested, of each test compound was placed in a 25 mL glass vial and was dissolved in 8 mL of a 97:3 v/v mixture of acetone and DMSO to obtain concentrated stock solutions. […] The concentrated stock solutions obtained were diluted with 16 mL of an aqueous mixture containing acetone, water, isopropyl alcohol, DMSO, Agri-dex crop oil concentrate, and Triton X-77 surfactant in a 64.7:26.0:6.7:2.0:0.7:0.01 v/v ratio to obtain spray solutions containing the highest application rates. Additional application rates were obtained by serial dilution of 12 mL of the high rate solution into a solution containing 4 mL of 97:3 v/v mixture of acetone and DMSO and 8 mL of an aqueous mixture containing acetone, water, isopropyl alcohol, DMSO, Agri-dex crop oil concentrate, and Triton X-77 surfactant in a 48.5:39.0:10.0:1.5:1.0:0.02 v/v ratio to obtain ½×, ¼×, ⅛× and 1/16× rates of the high rate. Compound requirements are based upon a 12 mL application volume at a rate of 187 L/ha. Formulated compounds were applied to the plant material with an overhead Mandel track sprayer equipped with a 8002E nozzles calibrated to deliver 187 L/ha over an application area of 0.503 square meters at a spray height of 18 inches (43 cm) above average plant canopy height. Control plants were sprayed in the same manner with the blank.
(§3) The treated plants and control plants were placed in a greenhouse as described above and watered by sub-irrigation to prevent wash-off of the test compounds. After 20-22 days, the condition of the test plants as compared with that of the untreated plants was determined visually and scored on a scale of 0 to 100 percent where 0 corresponds to no injury and 100 corresponds to complete kill.

[2] = test system: SCPJU = Scirpus juncoides; test: Herbicidal activity in transplanted paddy rice, Scirpus juncoides; settings: Schoenoplectiella juncoides, 480 h, water-injected paddy, after 20-22 days; for pest or weed control at 17.5 g/ha: 17.5 g ai/ha; for pest or weed control at 70 g/ha: 70 g ai/ha; for pest or weed control at 140 g/ha: 140 g ai/ha; for pest or weed control at 35 g/ha: 35 g ai/ha
Protocol: (§4) Weed seeds or nutlets of the desired test plant species were planted in puddled soil (mud) prepared by mixing a non-sterilized mineral soil (28 percent silt, 18 percent clay, and 54 percent sand, with a pH of about 7.3 to 7.8 and an organic matter content of about 1.0 percent) and water at a ratio of 100 kg of soil to 19 L of water. The prepared mud was dispensed in 250 mL aliquots into 480 mL non-perforated plastic pots with a surface area of 91.6 square centimeters leaving a headspace of 3 centimeters in each pot. Rice seeds were planted in Sun Gro MetroMix® 306 planting mixture, which typically has a pH of 6.0 to 6.8 and an organic matter content of about 30 percent, in plastic plug trays. Seedlings at the second or third leaf stage of growth were transplanted into 650 mL of mud contained in 960 mL non-perforated plastic pots with a surface area of 91.6 square centimeters 4 days prior to herbicide application. The paddy was created by filling the 3 centimeter headspace of the pots with water. When required to ensure good germination and healthy plants, a fungicide treatment and/or other chemical or physical treatment was applied. The plants were grown for 4-14 days in a greenhouse with an approximate 14 hour photoperiod which was maintained at about 29° C. during the day and 26° C. during the night. Nutrients were added as Osmocote (17:6:10, N:P:K+minor nutrients) at 2 g (grams) per cup. Water was added on a regular basis to maintain the paddy flood, and supplemental lighting was provided with overhead metal halide 1000-Watt lamps as necessary. The plants were employed for testing when they reached the second or third true leaf stage. A weighed amount, determined by the highest rate to be tested, of each test compound was placed in a 120 mL glass vial and was dissolved in 20 mL of acetone to obtain concentrated stock solutions. […] The concentrated stock solutions obtained were diluted with 20 mL of an aqueous mixture containing 0.01% Tween 20 (v/v). Application rates of ½×, ¼×, ⅛× and 1/16× of the high rate were obtained by injecting an appropriate amount of the stock solution into the aqueous layer of the paddy. Control plants were treated in the same manner with the solvent blank. The treated plants and control plants were placed in a greenhouse as described above and water was added as needed to maintain a paddy flood. After 20-22 days, the condition of the test plants as compared with that of the untreated plants was determined visually and scored on a scale of 0 to 100 percent where 0 corresponds to no injury and 100 corresponds to complete kill.

[3] = test system: ORYSA = rice (Orysa sativa var. Japonica); test: Herbicidal activity in transplanted paddy rice, rice; settings: Oryza sativa, 480 h, water-injected paddy, rice (crop), after 20-22 days; for pest or weed control at 17.5 g/ha: 17.5 g ai/ha; for pest or weed control at 70 g/ha: 70 g ai/ha; for pest or weed control at 140 g/ha: 140 g ai/ha; for pest or weed control at 35 g/ha: 35 g ai/ha
Protocol: as §4

[4] = test system: LAMPU = Lamium purpureum; test: Postemergence herbicidal activity in cereal crops, Lamium purpureum; settings: post-emergence, 480 h, post-emergent, after 20-22 days; for pest or weed control at 35 g/ha: 35 g ai/ha; for pest or weed control at 17.5 g/ha: 17.5 g ai/ha; for pest or weed control at 70 g/ha: 70 g ai/ha
Protocol: as §1, §2, §3

[5] = test system: HORVS = barley (Hordeum vulare); test: Postemergence herbicidal activity in cereal crops, barley; settings: post-emergence, 480 h, post-emergent, barley (crop), after 20-22 days; for pest or weed control at 35 g/ha: 35 g ai/ha; for pest or weed control at 17.5 g/ha: 17.5 g ai/ha; for pest or weed control at 70 g/ha: 70 g ai/ha
Protocol: as §1, §2, §3

[6] = test system: MOOVA = Monochoria vaginalis; test: Herbicidal activity in transplanted paddy rice, Monochoria vaginalis; settings: Pontederia vaginalis, 480 h, water-injected paddy, after 20-22 days; for pest or weed control at 17.5 g/ha: 17.5 g ai/ha; for pest or weed control at 70 g/ha: 70 g ai/ha; for pest or weed control at 140 g/ha: 140 g ai/ha; for pest or weed control at 35 g/ha: 35 g ai/ha
Protocol: as §4

[7] = test system: CYPDI = Cyperus difformis; test: Herbicidal activity in transplanted paddy rice, Cyperus difformis; settings: 480 h, water-injected paddy, after 20-22 days; for pest or weed control at 17.5 g/ha: 17.5 g ai/ha; for pest or weed control at 70 g/ha: 70 g ai/ha; for pest or weed control at 140 g/ha: 140 g ai/ha; for pest or weed control at 35 g/ha: 35 g ai/ha
Protocol: as §4

Compound | pest or weed control at 35 g/ha [1] [%] | pest or weed control at 17.5 g/ha [3] [%] | pest or weed control at 35 g/ha [4] [%] | pest or weed control at 35 g/ha [5] [%] | pest or weed control at 17.5 g/ha [6] [%] | pest or weed control at 17.5 g/ha [7] [%] | pest or weed control at 17.5 g/ha [1] [%] | pest or weed control at 17.5 g/ha [4] [%] | pest or weed control at 17.5 g/ha [5] [%] | pest or weed control at 70 g/ha [1] [%] | pest or weed control at 70 g/ha [4] [%] | pest or weed control at 70 g/ha [5] [%] | also measured
CCOc1c(Cl)ccc(-c2nc(N)c(Cl)c(C(=O)OC)n2)c1F [Compound 1, 6-amino-5-chloro-2-(4-chloro-3-ethoxy-2-fluorophenyl)-pyrimidine-4-carboxylic acid methyl ester] | 0 | 5 | 85 | 0 | 100 | 95 |  |  |  |  |  |  | pest or weed control at 17.5 g/ha [2]: 50%
COC(=O)c1nc(-c2c(F)cc(Cl)c(OC)c2F)nc(N)c1Cl [Compound 2, 6-amino-5-chloro-2-(4-chloro-2,6-difluoro-3-methoxy-phenyl)pyrimidine-4-carboxylic acid methyl ester] | 0 |  | 95 | 0 |  |  |  |  |  |  |  |  | pest or weed control at 70 g/ha [2]: 20%; pest or weed control at 70 g/ha [3]: 0%; pest or weed control at 70 g/ha [6]: 100%; pest or weed control at 70 g/ha [7]: 75%
COC(=O)c1nc(-c2ccc(Cl)c(OC)c2F)nc(N)c1Cl [Compound 3, 6-amino-5-chloro-2-(4-chloro-2-fluoro-3-methoxyphenyl)-pyrimidine-4-carboxylic acid methyl ester] |  | 0 |  |  | 100 | 99 | 0 | 99 | 0 |  |  |  | pest or weed control at 17.5 g/ha [2]: 80%
COC(=O)c1nc(-c2ccc(Cl)c(OC)c2Cl)nc(N)c1Cl [Compound 6, 6-Amino-5-chloro-2-(2,4-dichloro-3-methoxyphenyl)pyrimidine-4-carboxylic acid methyl ester] |  | 0 |  |  | 100 | 90 |  |  |  | 10 | 99 | 0 | 
COC(=O)c1nc(-c2ccc(Cl)c(C(F)F)c2F)nc(N)c1Cl [Compound 7, 6-Amino-5-chloro-2-(4-chloro-3-difluoromethyl-2-fluorophenyl)pyrimidine-4-carboxylic acid methyl ester] |  |  |  |  |  |  | 15 | 90 | 0 |  |  |  | pest or weed control at 140 g/ha [2]: 90%; pest or weed control at 140 g/ha [3]: 0%; pest or weed control at 140 g/ha [6]: 100%; pest or weed control at 140 g/ha [7]: 100%
COC(=O)c1nc(-c2ccc(Cl)c(N(C)C)c2F)nc(N)c1Cl [Compound 8, 6-Amino-5-chloro-2-(4-chloro-3-dimethylamino-2-fluorophenyl)pyrimidine-4-carboxylic acid methyl ester] | 15 |  | 85 | 0 |  |  |  |  |  |  |  |  | pest or weed control at 35 g/ha [2]: 10%; pest or weed control at 35 g/ha [3]: 0%; pest or weed control at 35 g/ha [6]: 100%; pest or weed control at 35 g/ha [7]: 95%
COC(=O)c1nc(-c2ccc3c(c2F)OCO3)nc(N)c1Cl [Compound 9, 6-Amino-5-chloro-2-(4-fluorobenzo[1,3]dioxol-5-yl)pyrimidine-4-carboxylic acid methyl ester] |  |  |  |  |  |  |  |  |  | 15 | 100 | 0 | pest or weed control at 35 g/ha [2]: 70%; pest or weed control at 35 g/ha [3]: 0%; pest or weed control at 35 g/ha [6]: 99%; pest or weed control at 35 g/ha [7]: 100%
COC(=O)c1nc(-c2ccc(Cl)c(OCC(F)F)c2F)nc(N)c1Cl [Compound 10, 6-Amino-5-chloro-2-[4-chloro-3-(2,2-difluoroethoxy)-2-fluorophenyl]-pyrimidine-4-carboxylic acid methyl ester] |  |  |  |  |  |  |  |  |  | 5 | 85 | 0 | pest or weed control at 140 g/ha [2]: 40%; pest or weed control at 140 g/ha [3]: 0%; pest or weed control at 140 g/ha [6]: 100%; pest or weed control at 140 g/ha [7]: 95%
COC(=O)c1nc(-c2ccc(Cl)c(OC)c2F)nc(N)c1Br [Compound 13, 6-amino-5-bromo-2-(4-chloro-2-fluoro-3-methoxyphenyl)-pyrimidine-4-carboxylic acid methyl ester] |  |  |  |  |  |  | 0 | 95 | 0 |  |  |  | pest or weed control at 70 g/ha [2]: 60%; pest or weed control at 70 g/ha [3]: 0%; pest or weed control at 70 g/ha [6]: 100%; pest or weed control at 70 g/ha [7]: 85%
